Results taken from publication PMC6481325, “Novel N,N-dialkyl cyanocinnamic acids as monocarboxylate transporter 1 and 4 inhibitors” (Oncotarget, 2019).
“Also recorded” adds a separate entry of the source.

Columns and labels:
[1] = test system: MCT1 expressing WiDr cells; assay: Seahorse XFe96 mitochondrial stress test (OCR), WiDr; type: cell-based; details: 30 μM
Description: (§1) Extracellular acidification rates (ECAR) and oxygen consumption rates (OCR) were recorded in real-time for glycolysis stress test (GST) and mitochondrial stress test (MST), respectively, using Agilent Seahorse XFe96® analyzer.

[2] = test system: MCT1 expressing WiDr cells; assay: Seahorse XFe96 glycolysis stress test (ECAR), WiDr; type: cell-based; details: 30 μM
Description: (§2) In the GST, three parameters namely glycolysis, glycolytic capacity and glycolytic reserve were measured.
as §1

[3] = test system: MDA-MB-231 tumor xenograft; assay: Tumor growth inhibition, MDA-MB-231 xenograft model; type: in vivo; details: SCID mice
Description: Figure 6 In vivo xenograft studies in WiDr and MDA-MB-231 tumor models (A) WiDr tumor xenograft study of compound 3 and compound 9. Mice (n = 8) were treated with 8 mg/kg of compound 3, intraperitoneally, two times a day. (B) Tumor growth inhibition study with compound 9 in MDA-MB-231 tumor xenograft model (n = 6). Mice were treated with compound 9 (70 mg/kg, ip, bid until day-4; qd from day-5), a combination of 9 and doxorubicin (0.5 mg/kg, ip, five days a week), and doxorubicin. (C) Tumor growth inhibition based on isolated tumor mass. ^*P < 0.05, ^**P < 0.01, ^***P < 0.001, ^****P < 0.0001. Schematic representation of (D) untreated tumor cells and (E) inhibition of MCT1 and MCT4 and decreased glycolysis and mitochondrial OxPhos in compound 9 treated tumor cells. Upward hollowed arrow indicates “increase” in function/amount and downward hollowed arrow indicates “decrease” in function/amount.
Group-1 was administered with compound 9, group-2 was given a combination of compound 9 and clinical breast cancer drug doxorubicin (AKSci catalog # E518), and group-3 was treated with doxorubicin alone. Group-4 was assigned as a control group and treated with vehicle (10% DMSO in saline). The treatment was continued up to 18 days and on day 20, the mice were euthanized and tumor masses isolated and weighed. […] Due to these reasons, higher dosages of compound 9 were required to produce significant anticancer efficacy in vivo. In all these studies, <20% of body weight loss was observed.
Tumor cells suspended in 1:1 matrigel-PBS were injected on right flank of female SCID mice (n = 6 mice/group, 10^7 MDA-MB-231 cells) or right flank of female athymic nude mice (n = 8 mice/group, 5 × 10^6 WiDr cells). Tumors were measured using calipers every 2–3 days and tumor volumes were calculated using the formula V = ab^2/2 where ‘a’ is the long diameter of the tumor and ‘b’ is the short diameter of the tumor. Tumor growth inhibition was determined using the formula % inhibition = [(C – T)/C] × 100 where C is average tumor weight of the control group and T is the average tumor weight of the test group.

[4] = test system: MCT4 expressing MDA-MB-231 cells; assay: Seahorse XFe96 mitochondrial stress test (OCR), MDA-MB-231; type: cell-based; details: 30 μM
Description: as §1

[5] = test system: MCT4 expressing MDA-MB-231 cells; assay: Seahorse XFe96 glycolysis stress test (ECAR), MDA-MB-231; type: cell-based; details: 30 μM
Description: as §2, §1

[6] = set-up: method as in ref 32 = [32]; PMID 26005533; doi:10.1021/acsmedchemlett.5b00049; 32 Gurrapu S Jonnalagadda SK Alam MA Nelson GL Sneve MG Drewes LR Mereddy VR Monocarboxylate transporter 1 inhibitors as potential anticancer agents ACS Med Chem Lett 2015 6 558 61 10.1021/acsmedcheml; details: in vivo; cited from earlier work
WiDr tumor xenograft = test system: WiDr tumor xenograft; set-up: method as in ref 32, 33 = [32]; PMID 26005533; doi:10.1021/acsmedchemlett.5b00049; 32 Gurrapu S Jonnalagadda SK Alam MA Nelson GL Sneve MG Drewes LR Mereddy VR Monocarboxylate transporter 1 inhibitors as potential anticancer agents ACS Med Chem Lett 2015 6 558 61 10.1021/acsmedcheml || [33]; 33 Mereddy VR Drewes LR Alam MA Jonnalagadda SK Gurrapu S Therapeutic Compounds US 9296728B2 United States Patent and Trademark Office 2016 https://app.dimensions.ai/details/patent/US-9296728-B2; details: mice, three weeks; cited from earlier work

## COc1cc(N(c2ccccc2)c2ccccc2)ccc1/C=C(\C#N)C(=O)O [Phenyl (9)]
[1]
  ATP production (MST, OCR): significantly decreased
  maximal respiration (MST, OCR): significantly decreased
  proton leak (MST, OCR): significantly increased proton leak compared to compound 3
  spare respiratory capacity (MST, OCR): significantly decreased
[2]
  glycolytic capacity (GST, ECAR): decreased; also recorded: significant decrease
  glycolytic reserve (GST, ECAR): completely arrested; also recorded: significant decrease
[3]; 9 70 mg/kg ip bid until day-4, qd from day-5, doxorubicin 0.5 mg/kg ip five days a week, treatment up to 18 days
  tumor growth inhibition based on tumor volume: 58%
[3]; same regimens, tumors isolated on day 20
  tumor growth inhibition based on isolated tumor weights: 56%
[4]
  ATP production (MST, OCR): significantly decreased
  maximal respiration (MST, OCR): significantly decreased
  proton leak (MST, OCR): significantly increased
  spare respiratory capacity (MST, OCR): significantly decreased
[5]
  glycolytic capacity (GST, ECAR): decreased
  glycolytic reserve (GST, ECAR): completely arrested
[6]
  elimination from plasma: most of the compound was eliminated in less than one hour
  time of peak plasma concentration: 15 min
WiDr tumor xenograft
  tumor growth reduction: 33%
